{
  "source": "paper PMC10746708",
  "about": "“A small molecule iCDM-34 identified by in silico screening suppresses HBV DNA through activation of aryl hydrocarbon receptor” (Cell Death Discovery, 2023)",
  "key": {"HBV-infected PXB cells [1]": {"test_system": "HBV-infected PXB cells", "assay": "Microarray gene expression analysis of HBV-infected PXB cells", "format": "cell-based, human", "protocol": "PXB cells cultured in 24-well plates were infected with three genome equivalents per cell of HBV C_AT. After 24 days of infection, the cells were treated with 0.3 and 30 µM iCDM-34 and 1,000 IU/mL IFN-α (Sumitomo Dainippon Pharma, Osaka, Japan) for 7 days (n = 3). Total RNA was extracted from the treated cells and subjected to microarray analysis. The raw and normalized data were uploaded to NCBI Gene Expression Omnibus (GSE180646).\nTo explore the biological interpretation of the transcriptome data, the canonical pathways and upstream causal networks were identified using knowledge-based functional analysis software from Ingenuity Pathways Analysis (IPA; Ingenuity Systems, Redwood City, CA, USA). […] A statistical measure of the IPA analysis is the activation z-score, which can be used to identify likely regulating molecules based on a statistically significant pattern match of up- and downregulation, and to predict the activation state (either activated or inhibited) of a putative regulator [37]. An absolute value of z-score more than 2 was considered significant."}, "AhR signaling pathway": {"test_system": "AhR signaling pathway", "assay": "CYP mRNA qPCR in 3D cultured FLC-4 cells", "format": "cell-based, human", "settings": "1, 10 μM, 1 day", "protocol": "The human hepatocellular carcinoma cell line FLC-4 was cultured on micro-space cell culture plates (Elplasia SQ-200, -100, -24, Kuraray, Tokyo, Japan) maintained at 37 °C and 5 % CO2 according to the manufacturer’s protocol. FLC-4 cells suspended in DMEM/Ham’s F12 medium supplemented with 10% heat-inactivated fetal bovine serum, 100 U/mL penicillin G, and 100 μg/mL streptomycin were seeded at a density of 8.0 × 10^5 cells/well and cultured for 3 days. The medium was replenished every 72 h, completely removed, and replaced with serum-free medium containing 1–10 µM iCDM-34 or vehicle (DMSO). Total RNA was isolated from cells and reverse transcribed complementary DNA was subjected to quantitative qPCR. mRNA expression was determined using TaqMan Gene Expression Assays (Hs00167927_m1 for CYP1A2, Hs00604506_m1 for CYP3A4, for Hs00426397_m1 for CYP2C9; Thermo Fisher Scientific, Waltham, MA, USA). Expression levels were determined using the 2^–ΔΔCt method and were normalized to endogenous GAPDH mRNA expression levels."}, "phospho-SAMHD1": {"test_system": "phospho-SAMHD1", "assay": "Western blotting of phospho-SAMHD1 in HepG2-NTCP-C4 cells", "format": "cell-based, human", "settings": "30 μM, 1 day", "protocol": "HepG2-NTCP-C4 cells were treated with 30 μM iCDM-17 and iCDM-34 for 1 day. The cells were lyzed with 20 mM TrisHCl pH 7.5 containing 100 mM NaCl, 10 mM EDTA, 1% TritonX-100, 1% Sodium deoxycholate, PhosSTOP (Roche), Complete EDTA free. The lysates were sonicated 30 s and mixed for 1 h with rotation at 4 °C. The lysates were centrifuged at 15,000 rpm for 10 min at 4 °C. The supernatants were analyzed by Western blotting using anti-phospho-SAMHD1 (Thr592) (Cell signaling technology, 89930, 1/1000), anti-SAMHD1 (Cell signaling technology, 49158, 1/1000), and β−actin (Santa Cruz, 1/1000)."}, "HBV-infected PXB cells [2]": {"test_system": "HBV-infected PXB cells", "assay": "pgRNA and OAS1 mRNA by qPCR in HBV-infected PXB cells", "format": "cell-based, human", "settings": "7 days", "protocol": "mRNA expression levels were measured by qPCR using specific primers or sets of specific primers and probe. RNA was reverse transcribed using PrimeScript RT Master Mix (Takara Bio, Shiga, Japan) to synthesize complementary DNA (cDNA). OAS1,glyceraldehyde 3-phosphate dehydrogenase (GAPDH), β-actin mRNA expression levels were measured using specific primers and TB Green Premix Ex Taq II (Takara Bio). AhR (Hs00169233_m), CDK1 (Hs00938777_m), CDK2 (Hs01548894_m) mRNA expression levels were measured using specific probe and primer sets (Thermo Fisher Scientific, Waltham, MA, USA) and Probe qPCR mix (Takara Bio) in a CFX96 Touch Real-Time PCR Detection System (Bio-Rad Laboratories, Hercules, CA, USA). The specific primers used in this study were OAS1 (forward primer: 5′-[…]-3′, reverse primer: 5′-[…]-3′), reverse primer: 5′-[…]-3′, and GAPDH (forward primer: 5′-[…]-3′, reverse primer: 5′-[…]-3′). β-actin (forward primer: forward primer: 5′-[…]-3′ and reverse primer: 5′-[…]-3′). Expression levels were determined using the 2^–ΔΔCt method and were normalized to endogenous β-actin mRNA expression levels.\nPXB cells were plated on 96-well plate and infected with three genome equivalents per cell of HBV C_AT [33], and the medium was changed every 3 or 4 days. […]"}, "[3]": {"biological_target": "interaction between HBx and DNA binding protein 1 (UniProt P03165+Q16531)", "sequence (Q16531 whole entry)": "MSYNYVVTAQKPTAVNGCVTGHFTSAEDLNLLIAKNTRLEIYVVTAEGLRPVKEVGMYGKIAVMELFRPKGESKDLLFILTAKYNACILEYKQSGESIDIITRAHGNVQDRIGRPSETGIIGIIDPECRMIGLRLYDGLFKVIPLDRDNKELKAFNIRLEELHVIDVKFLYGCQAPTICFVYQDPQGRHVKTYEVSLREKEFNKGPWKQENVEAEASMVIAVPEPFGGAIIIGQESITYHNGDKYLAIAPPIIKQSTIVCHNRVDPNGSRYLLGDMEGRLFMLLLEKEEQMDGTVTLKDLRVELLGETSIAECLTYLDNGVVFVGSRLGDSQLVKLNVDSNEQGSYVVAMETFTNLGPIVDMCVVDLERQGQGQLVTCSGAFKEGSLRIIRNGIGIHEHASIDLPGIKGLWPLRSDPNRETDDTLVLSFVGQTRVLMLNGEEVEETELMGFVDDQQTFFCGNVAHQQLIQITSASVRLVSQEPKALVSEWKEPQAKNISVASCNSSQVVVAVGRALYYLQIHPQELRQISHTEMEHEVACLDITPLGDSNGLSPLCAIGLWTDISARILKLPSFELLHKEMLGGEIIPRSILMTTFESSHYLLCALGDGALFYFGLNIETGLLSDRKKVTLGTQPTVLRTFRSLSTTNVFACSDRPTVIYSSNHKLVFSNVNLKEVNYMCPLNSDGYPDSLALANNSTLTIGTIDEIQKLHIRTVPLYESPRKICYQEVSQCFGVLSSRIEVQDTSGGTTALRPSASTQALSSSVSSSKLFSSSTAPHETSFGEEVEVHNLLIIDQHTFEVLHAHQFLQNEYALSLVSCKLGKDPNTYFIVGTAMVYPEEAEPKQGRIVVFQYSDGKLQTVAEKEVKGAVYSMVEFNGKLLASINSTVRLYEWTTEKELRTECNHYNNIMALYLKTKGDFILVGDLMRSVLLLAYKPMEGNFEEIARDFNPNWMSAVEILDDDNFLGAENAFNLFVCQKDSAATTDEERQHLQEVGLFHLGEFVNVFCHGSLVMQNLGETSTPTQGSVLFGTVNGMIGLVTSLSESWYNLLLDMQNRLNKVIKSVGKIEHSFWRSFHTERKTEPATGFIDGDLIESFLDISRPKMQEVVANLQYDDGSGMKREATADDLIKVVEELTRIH", "sequence (P03165 whole entry)": "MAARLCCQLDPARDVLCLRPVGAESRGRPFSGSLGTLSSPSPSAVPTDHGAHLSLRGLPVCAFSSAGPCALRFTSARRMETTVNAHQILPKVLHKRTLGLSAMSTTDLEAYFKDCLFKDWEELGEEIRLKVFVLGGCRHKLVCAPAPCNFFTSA", "assay": "HBx - DNA binding protein 1 interaction", "settings": "data not shown"}, "[4]": {"test_system": "promoter of hypoxia inducible factor (HIF)", "set-up": "method as in PMID 34492592", "settings": "cited from earlier work"}, "JAK/STAT signaling": {"test_system": "JAK/STAT signaling", "assay": "Western blotting of phospho-STAT1, STAT2, STAT3 in HCV replicon cells", "format": "cell-based, human", "settings": "30 μM, 24 h", "protocol": "HCV replicon cells were treated with 30 μM CDM-3008, iCDM-17, and iCDM-34 for 1 day. The cells were lyzed with 1 x SDS sample buffer containing PhosStop, Complete EDTA free, and 1 mM EDTA. After sonication for 30 s, the lysates were centrifuged at 12,000g for 10 min at 4 °C, and then the supernatants were collected. After reducing the 20 μg of supernatants with 50 mM DTT at 98 °C for 2 min, the samples were separated by SDS-PAGE. STAT1, STAT2, STAT3, pSTAT1, pSTAT2, and pSTAT3 were detected by Western blotting using anti-STAT1 (9175, 1/1000), STAT2 (72604, 1/1000), STAT3 (12640, 1/1000), pSTAT1 (Y701) (7649, 1/1000), pSTAT2 (Y690) (88410, 1/1000), and pSTAT3 (Y705) (9145, 1/1000) antibodies (Cell signaling technology, Massachusetts, USA)."}},
  "data": [
    {"smiles": "O=C(Nc1ccc(Br)cc1)c1ccn(Cn2cc([N+](=O)[O-])cn2)n1", "note": "[iCDM-34]", "values": [
      {"measurement": "expression of ADH1B, G6PC, ADH1A, TAT, SLC38A3, and SLC22A7", "setting": "HBV-infected PXB cells [1]", "result": "suppressed"},
      {"measurement": "expression of CYP1A1, CYP1A2, CYP4A11, CYP1B1, AKR1B15, and AKR1B10", "setting": "HBV-infected PXB cells [1]", "result": "upregulated"},
      {"measurement": "CYP1A2 mRNA expression", "setting": "AhR signaling pathway", "result": "increased expression"},
      {"measurement": "phospho-SAMHD1 levels", "setting": "phospho-SAMHD1", "result": "lower than pre-treatment levels"},
      {"measurement": "pgRNA expression level", "setting": "HBV-infected PXB cells [2]; 30 µM", "result": "significantly decreased"},
      {"measurement": "expression of OAS1 (ISG)", "setting": "HBV-infected PXB cells [2]; 0.0003–30 μM", "result": "no increase"},
      {"measurement": "inhibition of interaction between HBx and DNA binding protein 1", "setting": "[3]", "result": "did not inhibit"},
      {"measurement": "suppression of HIF promoter", "setting": "[4]", "result": "suppress"},
      {"measurement": "phosphorylation of STAT1, STAT2, and STAT3", "setting": "JAK/STAT signaling", "result": "not induced"}
    ]}
  ]
}
